The numbers were not newly measured in patent US20190388350A1, “FORMULATION” (priority 2018, published 2019), which cites them from elsewhere.

Each structure is given as a SMILES string. Structures can show the parent of a compound that is named as a salt.

On to `CCN(C)C(=O)Oc1cccc([C@H](C)N(C)C)c1` [rivastigmine tartrate], for which the pKa is 8.9.
